{
  "source": "patent US7648993B2",
  "about": "“Methods of treating disorders with Group I mGluR antagonists” (Brown University, priority 2001, dated 2010)",
  "key": {"[1]": {"test_system": "hippocampal slices from Fmr1-KO mice and wildtype littermates", "assay": "DHPG-induced mGluR-LTD of field potentials in hippocampal slices of Fmr1-KO and WT mice", "assay_type": "cell-based, C57BL/6 congenic mice", "description": "ACSF at a rate of 2 ml/min.\nFresh stocks were made once a week."}, "[2]": {"test_system": "hippocampal area CA1 slices", "assay": "Sharp electrode EPSP and whole cell voltage-clamp EPSC recordings in hippocampal slices", "assay_type": "cell-based, Long Evans rats", "conditions": "DHPG 50 μM, 5 min", "description": "(§1) All animals were used in accordance with procedures approved by the Brown University Institutional Animal Care and Use Committee. Hippocampal slices were prepared from postnatal day 21-30 (P21-30) Long Evans rats (Charles River, Cambridge, Mass.) and mGluR5 knockout mice (Lu et al. 1997) as described previously (Huber et al. 2000). For most experiments, CA3 was removed immediately after sectioning. Slices recovered for 1-2 h at room temperature (rats) or at 30° C. (mice) in artificial cerebrospinal fluid (ACSF) containing (in mM) 124 NaCl, 5 KCl, 1.25 NaH2PO4, 26 NaHCO3, 1 MgCl2, 2 CaCl2, and 10 dextrose, saturated with 95% O2-5% CO2. For recording, slices were placed in a submersion recording chamber and perfused with 30° C. ACSF at a rate of 2 ml/min.\nSynaptically evoked field potentials (FPs) were recorded from area CA1 as described previously. […]\nThe group data were analyzed as follows: 1) the initial slopes of the FPs and excitatory postsynaptic potentials (EPSPs), or the amplitude of the excitatory postsynaptic currents (EPSCs), for each experiment were expressed as percentages of the preconditioning or DHPG baseline average, 2) the time scale in each experiment was converted to time from the onset of conditioning or DHPG, and 3) the time-matched, normalized data were averaged across experiments and expressed in the text and figures as the means ±SE. […]"}, "[3]": {"test_system": "CA1 neurons in hippocampal slices", "assay": "Synaptically evoked NMDAR-mediated EPSCs in CA1 neurons of hippocampal slices", "assay_type": "cell-based, Long Evans rats", "conditions": "5 min, 30 minutes after treatment, +40 mV", "description": "The loss of synaptic NR1 clusters clearly distinguishes the effect of DHPG from other treatments that selectively affect AMPARs^2,17-19.\nHippocampal slices were prepared from P21-30 Long Evans rats (Charles River, Cambridge, Mass.) as described previously^13,14. Slices recovered for 1-2 h at room temperature in artificial cerebrospinal fluid (ACSF) containing 124 mM NaCl, 5 mM KCl, 1.25 mM NaH2PO4, 26 mM NaHCO3, 1 mM MgCl2, 2 mM CaCl2, 10 mM dextrose, saturated with 95% O2, 5% CO2. For recording, slices were placed in a submersion recording chamber and perfused with 30° C. ACSF at a rate of 2 ml/min.\nSynaptically evoked-NMDAR-mediated EPSCs were recorded from area CA1 as described previously for visual cortex^20. NMDA-evoked currents were examined by picospritzing 1 mM NMDA (made in ACSF), applied for 3.5-12.5 ms, near the proximal portion of the primary apical dendrite. NMDA-evoked currents were elicited once every two minutes. Stimulation intensity or picospritz pulse duration/pressure were adjusted to evoke an inward current with amplitude of 50 pA or greater."}, "[4]": {"test_system": "hippocampal area CA1 slices", "assay": "Field potential (FP) recordings in area CA1 of rat hippocampal slices (DHPG-LTD)", "assay_type": "cell-based, Long Evans rats", "conditions": "for FP, % of pre-DHPG baseline (synaptic responses stabilized at a depressed level): after drug wash out", "description": "as §1\nSynaptically evoked field potentials (FPs) were recorded from area CA1 as described previously. Sharp microelectrode and whole cell voltage-clamp recordings were made using Axoclamp 2B and Axopatch 1D amplifiers (Axon Instruments), respectively. Sharp electrodes (80-120 M Ω) were filled with 3 M K-acetate and 10 mM KCl; patch pipettes (3-7 M Ω) were filled with (in mM) 134 K-gluconate, 6 KCl, 4 NaCl, 10 HEPES, 0.2 EGTA, 4 MgATP, 0.3 TrisGTP, and 14 phosphocreatine. The pH of the internal solution was adjusted to 7.25 with KOH, and the osmolarity was adjusted to 300 mOsm with H2O or sucrose. Only experiments in which there was less than a 15% change in series resistance were included in the analysis. Waveforms were filtered at 2 kHz and acquired and digitized at 10 kHz on a PC using Experimenter's Workbench (DataWave Systems, Boulder, Colo.).\nBaseline responses were collected every 10-30 s using a stimulation intensity (10-30 μA; 0.2 ms) yielding 50-60% of the maximal response. Experiments in which there was a>5% drift in the response magnitude during the 20-min baseline period before DHPG or LFS were excluded from further analysis. All experiments with mGluR5 KO mice used wildtype littermates as controls and were performed blind to the genotype, later determined by Therion (Troy, N.Y.). LFS consisted of 900 pulses at 1 Hz. PP-LFS consisted of 900 pairs of stimuli (50-ms interstimulus interval) delivered at 1 Hz. In saturation experiments, stimulus duration was increased from 0.2 to 0.4 ms during PP-LFS.\nThe group data were analyzed as follows: 1) the initial slopes of the FPs and excitatory postsynaptic potentials (EPSPs), or the amplitude of the excitatory postsynaptic currents (EPSCs), for each experiment were expressed as percentages of the preconditioning or DHPG baseline average, 2) the time scale in each experiment was converted to time from the onset of conditioning or DHPG, and 3) the time-matched, normalized data were averaged across experiments and expressed in the text and figures as the means ±SE. Significant differences between groups were determined using an independent t-test or ANOVA performed on a 5-min average taken 1 h after LFS or DHPG application.\nR,S-DHPG and D-2-amino-5-phosphonopentanoic acid (D-AP5) was purchased from Tocris (St. Louis, Mo.); all other chemicals were from Sigma Chemical (St Louis, Mo.). DHPG was prepared as a 100 times stock in H2O, aliquoted and stored at −20° C. Fresh stocks were made once a week. A 10 times stock of AP5 was prepared in ACSF and stored at 4° C. These stocks were diluted in ACSF to achieve their final concentrations. Picrotoxin was dissolved directly into ACSF immediately before use."}, "[5]": {"conditions": "DHPG 100 μM, 5 min, in APV, 60 min after DHPG"}},
  "data": [
    {"smiles": "NC(C(=O)O)c1cc(O)cc(O)c1", "note": "(racemic) [DHPG, (RS)-3,5-dihydroxyphenylglycine]", "values": [
      {"measurement": "FP slope, % of pre-DHPG baseline, Fmr1-KO mice", "setting": "[1]; [5]", "value": "77±3", "unit": "%"},
      {"measurement": "FP slope, % of pre-DHPG baseline, WT mice", "setting": "[1]; [5]", "value": "88±4", "unit": "%"},
      {"measurement": "maximal acute depression, % of pre-DHPG baseline values, KO", "setting": "[1]; DHPG, Fmr1-KO slices", "value": "26±5", "unit": "%"},
      {"measurement": "maximal acute depression, % of pre-DHPG baseline values, WT", "setting": "[1]; DHPG, WT slices", "value": "36±4", "unit": "%"},
      {"measurement": "EPSP slope after DHPG (LTD), % of baseline", "setting": "[2]; sharp electrode recording", "value": "61±5", "unit": "%"},
      {"measurement": "EPSC amplitude after DHPG (LTD), % of baseline", "setting": "[2]; whole cell voltage clamp at −70 mV", "value": "69±5", "unit": "%"},
      {"measurement": "NMDAR-EPSC amplitude as percent of baseline", "setting": "[3]; DHPG 50 μM", "value": "70.7±2.9% of baseline"},
      {"measurement": "NMDAR-EPSC amplitude as percent of baseline", "setting": "[3]; DHPG 100 μM", "value": "57.7±1.0% of baseline"},
      {"measurement": "FP slope, % of pre-DHPG baseline after saturation of mGluR-dependent LTD", "setting": "[4]; DHPG 50 μM applied after PP-LFS in D-AP5 50 μM", "value": "100±5", "unit": "%"},
      {"measurement": "FP, % of pre-DHPG baseline (synaptic responses stabilized at a depressed level)", "setting": "[4]; DHPG 50 μM, 5 min", "value": "69±5", "unit": "%"},
      {"measurement": "DHPG-LTD, two-pathway experiment, unstimulated input", "setting": "[4]; DHPG 50 μM, 5 min, input not stimulated during DHPG", "value": "68±5", "unit": "%"},
      {"measurement": "DHPG-LTD, two-pathway experiment, stimulated input", "setting": "[4]; DHPG 50 μM, 5 min, input stimulated during DHPG", "value": "62±4", "unit": "%"},
      {"measurement": "magnitude of DHPG-LTD, interleaved control slices without AP5", "setting": "[4]; DHPG 50 μM, 5 min, no AP5", "value": "85±3", "unit": "%"},
      {"measurement": "FP, % of pre-DHPG baseline (synaptic responses stabilized at a depressed level)", "setting": "[4]; DHPG 100 μM, 5 min", "value": "48±1", "unit": "%"},
      {"measurement": "FP slope, % of pre-DHPG baseline after saturation of NMDAR-dependent LTD", "setting": "[4]; DHPG applied after repeated episodes of LFS", "value": "81±5", "unit": "%"}
    ]}
  ]
}
